What was measured:
[1] = test system: OCI-AML3 (Acute Myeloid Leukemia); assay: combination Emax (second highest fraction inhibited in the dose matrix, 72 h); higher = more inhibition; extreme values may be limits of the assay
How it was run: (§1)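 After 24 hours at 37°C and 5% CO2 in 1536-well plates, cells in DMEM/F12 or RPMI plus 10% FBS received two-drug dose matrices for 72 hours. Viability came from CellTiter-Glo 2.0 luminescence and was scaled as inhibition, anchored at 0 by vehicle wells and at 1 by blank wells. Combination Emax is taken as the second-highest inhibition in the matrix, and Bliss excess as the observed combination effect less EA + EB − EA·EB, with EA and EB the single-agent effects.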

[2] = test system: OCI-AML3 (Acute Myeloid Leukemia); assay: Bliss excess, mean over the matrix (fraction); higher = more synergy
How it was run: as §1

[3] = test system: KU812 (Chronic Myelogenous Leukemia); assay: as above
How it was run: as §1

[4] = test system: DMS-114 (Small Cell Lung Carcinoma); assay: as above
How it was run: as §1
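Wherever Bliss excess, mean over the matrix is given: after 72 h of two-drug dosing.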

| Structure (SMILES) | combination Emax [1] | Bliss excess [2] | Bliss excess [3] | Bliss excess [4] |
| --- | --- | --- | --- | --- |
| COc1nnc2ccc(N3CCC(c4ccc(OCCN5CCN(C)C(=O)[C@H]5C)cc4)CC3)nn12 [AZD5153] + C=CCn1c(=O)c2cnc(Nc3ccc(N4CCN(C)CC4)cc3)nc2n1-c1cccc(C(C)(C)O)n1 [AZD1775] (first compound max 1 µM, partner max 1 µM) | 1 | -0.012 | -0.0632 | -0.0367 |
| COc1nnc2ccc(N3CCC(c4ccc(OCCN5CCN(C)C(=O)[C@H]5C)cc4)CC3)nn12 [AZD5153] + CC1(C)CCC(CN2CCN(c3ccc(C(=O)NS(=O)(=O)c4ccc(NCC5CCOCC5)c([N+](=O)[O-])c4)c(Oc4cnc5[nH]ccc5c4)c3)CC2)=C(c2ccc(Cl)cc2)C1 [Venetoclax] (first compound max 1 µM, 7x7, partner max 1 µM) | 1 | -0.052 | -0.058 | -0.0732 |
| COc1nnc2ccc(N3CCC(c4ccc(OCCN5CCN(C)C(=O)[C@H]5C)cc4)CC3)nn12 [AZD5153] + CCN(CCO)CCCOc1ccc2c(Nc3cc(CC(=O)Nc4cccc(F)c4)[nH]n3)ncnc2c1 [AZD2811] (first compound max 1 µM, 7x7, partner max 1 µM) | 1 | 0.05 | -0.0011 | -0.0127 |
| COc1nnc2ccc(N3CCC(c4ccc(OCCN5CCN(C)C(=O)[C@H]5C)cc4)CC3)nn12 [AZD5153] + C[C@@H]1COCCN1C2=NC(=NC(=C2)C3(CC3)[S@](=N)(=O)C)C4=C5C=CNC5=NC=C4 [AZD6738] (first compound max 1 µM, 7x7, partner max 10 µM) | 1 | -0.0454 | -0.065 | 0.0184 |
| COc1nnc2ccc(N3CCC(c4ccc(OCCN5CCN(C)C(=O)[C@H]5C)cc4)CC3)nn12 [AZD5153] + Cc1c2c(nn1C)CSCc1cc(n(C)n1)CSc1cc(c3ccccc3c1)OCCCc1c(C(=O)O)n(C)c3c-2c(Cl)ccc13 [AZD5991] (first compound max 1 µM, 7x7, partner max 1 µM) | 1 | -0.0565 | -0.0007 | 0.029 |
| COc1nnc2ccc(N3CCC(c4ccc(OCCN5CCN(C)C(=O)[C@H]5C)cc4)CC3)nn12 [AZD5153] + Cn1cnc2c(F)c(Nc3ccc(Br)cc3Cl)c(C(=O)NOCCO)cc21 [Selumetinib] (first compound max 1 µM, 7x7, partner max 10 µM) | 1 | -0.0046 | 0.0272 | 0.0443 |
| NC1(C(=O)N[C@@H](CCO)c2ccc(Cl)cc2)CCN(c2ncnc3[nH]ccc23)CC1 [Capivasertib] + CC(=O)c1c(C)c2cnc(Nc3ccc(N4CCNCC4)cn3)nc2n(C2CCCC2)c1=O [Palbociclib] (first compound max 10 µM, 7x7, partner max 10 µM) | 0.587 | 0.0866 | 0.0662 | -0.0203 |
| NC1(C(=O)N[C@@H](CCO)c2ccc(Cl)cc2)CCN(c2ncnc3[nH]ccc23)CC1 [Capivasertib] + CC(C)n1c(=O)n(C)c2cnc3cc(F)c(-c4ccc(OCCCN5CCCCC5)nc4)cc3c21 [AZD1390] (first compound max 10 µM, 7x7, partner max 0.3 µM) | 0.37 | -0.11 | -0.0037 | -0.0465 |
| NC1(C(=O)N[C@@H](CCO)c2ccc(Cl)cc2)CCN(c2ncnc3[nH]ccc23)CC1 [Capivasertib] + CCN(CCO)CCCOc1ccc2c(Nc3cc(CC(=O)Nc4cccc(F)c4)[nH]n3)ncnc2c1 [AZD2811] (first compound max 10 µM, 7x7, partner max 1 µM) | 0.585 | -0.095 | 0.0173 | 0.0039 |
| NC1(C(=O)N[C@@H](CCO)c2ccc(Cl)cc2)CCN(c2ncnc3[nH]ccc23)CC1 [Capivasertib] + COc1nnc2ccc(N3CCC(c4ccc(OCCN5CCN(C)C(=O)[C@H]5C)cc4)CC3)nn12 [AZD5153] (first compound max 10 µM, 7x7, partner max 1 µM) | 1 | -0.014 | -0.05 | 0.0259 |
| NC1(C(=O)N[C@@H](CCO)c2ccc(Cl)cc2)CCN(c2ncnc3[nH]ccc23)CC1 [Capivasertib] + C[C@@H]1COCCN1C2=NC(=NC(=C2)C3(CC3)[S@](=N)(=O)C)C4=C5C=CNC5=NC=C4 [AZD6738] (first compound max 10 µM, 7x7, partner max 10 µM) | 0.891 | -0.0224 | 0.0357 | -0.0067 |
| NC1(C(=O)N[C@@H](CCO)c2ccc(Cl)cc2)CCN(c2ncnc3[nH]ccc23)CC1 [Capivasertib] + Cn1cnc2c(F)c(Nc3ccc(Br)cc3Cl)c(C(=O)NOCCO)cc21 [Selumetinib] (first compound max 10 µM, 7x7, partner max 10 µM) | 0.918 | -0.0291 | -0.0282 | 0.0203 |
| Cc1nc(Nc2ncc(C(=O)Nc3c(C)cccc3Cl)s2)cc(N2CCN(CCO)CC2)n1 [Dasatinib] + CC(=O)Nc1cccc(-n2c(=O)n(C3CC3)c(=O)c3c(Nc4ccc(I)cc4F)n(C)c(=O)c(C)c32)c1 [Trametinib] (first compound max 2 µM, 7x7, partner max 1 µM) | 0.942 | -0.0745 | -0.0046 | -0.0036 |
| COc1cc2ncnc(Nc3ccc(F)c(Cl)c3)c2cc1OCCCN1CCOCC1 [Gefitinib] + CC(C)n1c(=O)n(C)c2cnc3cc(F)c(-c4ccc(OCCCN5CCCCC5)nc4)cc3c21 [AZD1390] (first compound max 10 µM, 7x7, partner max 0.3 µM) | 0.059 | -0.0457 | -0.0436 | -0.0579 |
| CS(=O)(=O)CCNCc1ccc(-c2ccc3ncnc(Nc4ccc(OCc5cccc(F)c5)c(Cl)c4)c3c2)o1 [Lapatinib] + C[C@@H](Oc1cc(-c2cnn(C3CCNCC3)c2)cnc1N)c1c(Cl)ccc(F)c1Cl [Crizotinib] (first compound max 10 µM, 7x7, partner max 10 µM) | 0.846 | -0.0235 | -0.0598 | -0.017 |
| CS(=O)(=O)CCNCc1ccc(-c2ccc3ncnc(Nc4ccc(OCc5cccc(F)c5)c(Cl)c4)c3c2)o1 [Lapatinib] + NC1(c2ccc(-c3nc4ccn5c(=O)[nH]nc5c4cc3-c3ccccc3)cc2)CCC1 [MK-2206] (first compound max 10 µM, 7x7, partner max 10 µM) | 0.683 | 0.0739 | -0.0194 | 0.0721 |
| CC1(C)CCC(CN2CCN(c3ccc(C(=O)NS(=O)(=O)c4ccc(NCC5CCOCC5)c([N+](=O)[O-])c4)c(Oc4cnc5[nH]ccc5c4)c3)CC2)=C(c2ccc(Cl)cc2)C1 [Venetoclax] + C[C@@H]1COCCN1C2=NC(=NC(=C2)C3(CC3)[S@](=N)(=O)C)C4=C5C=CNC5=NC=C4 [AZD6738] (first compound max 1 µM, 7x7, partner max 10 µM) | – | – | -0.0055 | -0.0338 |
| CC1(C)CCC(CN2CCN(c3ccc(C(=O)NS(=O)(=O)c4ccc(NCC5CCOCC5)c([N+](=O)[O-])c4)c(Oc4cnc5[nH]ccc5c4)c3)CC2)=C(c2ccc(Cl)cc2)C1 [Venetoclax] + C[C@@H](Nc1cc(F)cc(F)c1)c1cc(C(=O)N(C)C)cc2c(=O)cc(N3CCOCC3)oc12 [AZD8186] (first compound max 1 µM, 7x7, partner max 3 µM) | – | – | -0.024 | -0.0297 |
| CC1(C)CCC(CN2CCN(c3ccc(C(=O)NS(=O)(=O)c4ccc(NCC5CCOCC5)c([N+](=O)[O-])c4)c(Oc4cnc5[nH]ccc5c4)c3)CC2)=C(c2ccc(Cl)cc2)C1 [Venetoclax] + Cc1cc2ncnn2cc1Nc1ncc2c(n1)n(C1CCOCC1)c(=O)n2C [AZD7648] (first compound max 1 µM, 7x7, partner max 10 µM) | – | – | -0.0174 | -0.0205 |
| CC1(C)CCC(CN2CCN(c3ccc(C(=O)NS(=O)(=O)c4ccc(NCC5CCOCC5)c([N+](=O)[O-])c4)c(Oc4cnc5[nH]ccc5c4)c3)CC2)=C(c2ccc(Cl)cc2)C1 [Venetoclax] + Cn1cnc2c(F)c(Nc3ccc(Br)cc3Cl)c(C(=O)NOCCO)cc21 [Selumetinib] (first compound max 1 µM, 7x7, partner max 3 µM) | – | – | -0.0125 | -0.0371 |

— the supplement of paper PMC11061612
